Measurements published in patent US20200179428A1, “CYCLIC PHOSPHATE SUBSTITUTED NUCLEOSIDE DERIVATIVES AND METHODS OF USE THEREOF FOR THE TREATMENT OF VIRAL DISEASES” (priority 2016, published 2020).

Key:
replicon cells (1b-Con1) = test: Replicon activity assay (replicon RNA level by real-time RT-PCR, Taqman); assay type: cell-based; details: Hepatitis C virus, HCV replicon genotype 1b; read-out: EC50 (1b) Range
Method: (§1) To measure cell-based anti-HCV activity of the compounds of the present invention, replicon cells (1b-Con1) are seeded at 5000 cells/well in 96-well plates one day prior to treatment with a compound of the invention. Various concentrations of a test compound of the invention in DMSO are then added to the replicon cells, with the final concentration of DMSO at 0.5% and fetal bovine serum at 10% in the assay media. Cells are harvested three days post-dosing, and the replicon RNA level is determined using real-time RT-PCR (Taqman assay) with GAPDH RNA as endogenous control. EC50 values are calculated from experiments with 10 serial twofold dilutions of the inhibitor in triplicate. To measure cytotoxicity in replicon cells of an inhibitor, an MTS assay is performed according to the manufacturer's protocol for CellTiter 96 Aqueous One Solution Cell Proliferation Assay (Promega, Cat # G3580) three days post dosing on cells treated identically as in replicon activity assays. […] Cytotoxicity in other types of cells may be measured using the same MTS protocol.

[1] = Cytotoxicity MTS assay (CellTiter 96 Aqueous One Solution) in replicon cells; assay type: cell-based; details: HCV replicon cells (1b-Con1); EDU; read-out: CC50 (EDU) Range
Method: as §1

| SMILES | EC50 (replicon cells (1b-Con1)) [µM] | CC50 at 3 days [1] [µM] |
| --- | --- | --- |
| C#C[C@]1(C)[C@@H]2O[P@@](=O)(OCC[C@H](NC(=O)OC)C(=O)OC(C)C)OC[C@H]2O[C@H]1n1ccc(=O)[nH]c1=O [Compound 43A] | > 10 | > 50 |
| C#C[C@]1(C)[C@@H]2O[P@](=O)(OCC[C@H](NC(=O)OC)C(=O)OC(C)C)OC[C@H]2O[C@H]1n1ccc(=O)[nH]c1=O [Compound 43B] | > 10 | > 50 |
| C#C[C@]1(C)[C@@H]2O[P@@](=O)(OCCC(CO)C(=O)OC(C)C)OC[C@H]2O[C@H]1n1ccc(=O)[nH]c1=O (some centres unmarked) [Compound 44A] | > 10 | > 50 |
| C#C[C@]1(C)[C@@H]2O[P@](=O)(OCCC(CO)C(=O)OC(C)C)OC[C@H]2O[C@H]1n1ccc(=O)[nH]c1=O (some centres unmarked) [Compound 44B] | > 10 | > 50 |
| CO[C@H](CCO[P@@]1(=O)OC[C@H]2O[C@@H](n3ccc(=O)[nH]c3=O)[C@](C)(N)[C@@H]2O1)C(=O)OC(C)C [Compound 45A] | 1 to 10 | > 50 |
| CO[C@H](CCO[P@]1(=O)OC[C@H]2O[C@@H](n3ccc(=O)[nH]c3=O)[C@](C)(N)[C@@H]2O1)C(=O)OC(C)C [Compound 45B] | > 10 | > 50 |
| C[C@@]1(N)[C@@H]2O[P@@](=O)(OCCC3CCOC3=O)OC[C@H]2O[C@H]1n1ccc(=O)[nH]c1=O (some centres unmarked) [Compound 46A] | > 10 | > 50 |
| C[C@@]1(N)[C@@H]2O[P@](=O)(OCCC3CCOC3=O)OC[C@H]2O[C@H]1n1ccc(=O)[nH]c1=O (some centres unmarked) [Compound 46B] | > 10 | > 50 |
| CC(C)OC(=O)C1CC1CO[P@@]1(=O)OC[C@H]2O[C@@H](n3ccc(=O)[nH]c3=O)[C@](C)(N)[C@@H]2O1 (some centres unmarked) [Compound 47A] | > 10 | > 50 |
| CC(C)OC(=O)C1CC1CO[P@]1(=O)OC[C@H]2O[C@@H](n3ccc(=O)[nH]c3=O)[C@](C)(N)[C@@H]2O1 (some centres unmarked) [Compound 47B] | > 10 | > 50 |
| CO[C@H](CO[P@@]1(=O)OC[C@H]2O[C@@H](n3ccc(=O)[nH]c3=O)[C@](C)(N)[C@@H]2O1)[C@@H](OC)C(=O)OC(C)C [Compound 48A] | > 10 | > 50 |
| CO[C@H](CO[P@]1(=O)OC[C@H]2O[C@@H](n3ccc(=O)[nH]c3=O)[C@](C)(N)[C@@H]2O1)[C@@H](OC)C(=O)OC(C)C [Compound 48B] | > 10 | > 50 |
| CC(C)OC(=O)CC(F)(F)CO[P@@]1(=O)OC[C@H]2O[C@@H](n3ccc(=O)[nH]c3=O)[C@](C)(N)[C@@H]2O1 [Compound 49A] | > 10 | > 50 |
| CC(C)OC(=O)CC(F)(F)CO[P@]1(=O)OC[C@H]2O[C@@H](n3ccc(=O)[nH]c3=O)[C@](C)(N)[C@@H]2O1 [Compound 49B] | 1 to 10 | < 50 |
| C#C[C@]1(C)[C@@H]2O[P@@](=O)(OCC[C@@H](OC(C)=O)C(=O)OC(C)C)OC[C@H]2O[C@H]1n1ccc(=O)[nH]c1=O [Compound 50A] | > 10 | > 50 |
| C#C[C@]1(C)[C@@H]2O[P@](=O)(OCC[C@@H](OC(C)=O)C(=O)OC(C)C)OC[C@H]2O[C@H]1n1ccc(=O)[nH]c1=O [Compound 50B] | 0.25 to 1 | > 50 |
| C#C[C@]1(C)[C@@H]2O[P@@](=O)(OCC[C@H](OC(C)=O)C(=O)OC(C)C)OC[C@H]2O[C@H]1n1ccc(=O)[nH]c1=O [Compound 51A] | 1 to 10 | > 50 |
| C#C[C@]1(C)[C@@H]2O[P@](=O)(OCC[C@H](OC(C)=O)C(=O)OC(C)C)OC[C@H]2O[C@H]1n1ccc(=O)[nH]c1=O [Compound 51B] | ≤ 0.25 | > 50 |
| CC(=O)O[C@H](C(=O)OC(C)C)[C@@H](COP1(=O)OC[C@H]2O[C@@H](n3ccc(=O)[nH]c3=O)[C@](C)(N)[C@@H]2O1)OC(C)=O (some centres unmarked) [Compound 53B] | > 10 | > 50 |
| CC(=O)O[C@@H](CO[P@@]1(=O)OC[C@H]2O[C@@H](n3ccc(=O)[nH]c3=O)[C@](C)(N)[C@@H]2O1)[C@@H](OC(C)=O)C(=O)OC(C)C [Compound 54A] | > 10 | > 50 |
| CC(=O)O[C@@H](CO[P@]1(=O)OC[C@H]2O[C@@H](n3ccc(=O)[nH]c3=O)[C@](C)(N)[C@@H]2O1)[C@@H](OC(C)=O)C(=O)OC(C)C [Compound 54B] | > 10 | > 50 |
| C#C[C@]1(C)[C@@H]2O[P@@](=O)(OCC[C@H](OC)C(=O)OC(C)C)OC[C@H]2O[C@H]1n1ccc(=O)[nH]c1=O [Compound 56A] | 0.25 to 1 | > 50 |
| C#C[C@]1(C)[C@@H]2O[P@](=O)(OCC[C@H](OC)C(=O)OC(C)C)OC[C@H]2O[C@H]1n1ccc(=O)[nH]c1=O [Compound 56B] | 0.25 to 1 | > 50 |

| SMILES | EC50 (replicon cells (1b-Con1)) [µM] | CC50 at 3 days [1] [µM] |
| --- | --- | --- |
| C#C[C@]1(C)[C@@H]2O[P@@](=O)(OCC[C@@H](OC)C(=O)OC(C)C)OC[C@H]2O[C@H]1n1ccc(=O)[nH]c1=O [Compound 57A] | 1 to 10 | > 50 |
| C#C[C@]1(C)[C@@H]2O[P@](=O)(OCC[C@@H](OC)C(=O)OC(C)C)OC[C@H]2O[C@H]1n1ccc(=O)[nH]c1=O [Compound 57B] | 1 to 10 | > 50 |
| CC(C)OC(=O)CS(=O)(=O)CCO[P@@]1(=O)OC[C@H]2O[C@@H](n3ccc(=O)[nH]c3=O)[C@](C)(N)[C@@H]2O1 [Compound 58A] | > 10 | < 50 |
| C#C[C@@]1(O)[C@@H]2O[P@@](=O)(OCCC(C(=O)OC(C)C)C(=O)OC(C)C)OC[C@H]2O[C@H]1n1ccc(=O)[nH]c1=O [Compound 59A] | 0.25 to 1 | > 50 |
| C#C[C@@]1(O)[C@@H]2O[P@](=O)(OCCC(C(=O)OC(C)C)C(=O)OC(C)C)OC[C@H]2O[C@H]1n1ccc(=O)[nH]c1=O [Compound 59B] | ≤ 0.25 | > 50 |
| C#C[C@]1(C)[C@@H]2O[P@@](=O)(OC[C@H](CC(=O)OC(C)C)OC)OC[C@H]2O[C@H]1n1ccc(=O)[nH]c1=O [Compound 60A] | > 10 | > 50 |
| C#C[C@]1(C)[C@@H]2O[P@](=O)(OC[C@H](CC(=O)OC(C)C)OC)OC[C@H]2O[C@H]1n1ccc(=O)[nH]c1=O [Compound 60B] | > 10 | > 50 |
| CO[C@H](CO[P@@]1(=O)OC[C@H]2O[C@@H](n3ccc(=O)[nH]c3=O)[C@](C)(N)[C@@H]2O1)CC(=O)OC(C)C [Compound 61A] | > 10 | > 50 |
| CO[C@H](CO[P@]1(=O)OC[C@H]2O[C@@H](n3ccc(=O)[nH]c3=O)[C@](C)(N)[C@@H]2O1)CC(=O)OC(C)C [Compound 61B] | > 10 | > 50 |
| C#C[C@]1(C)[C@@H]2O[P@@](=O)(OC[C@@H](CC(=O)OC(C)C)OC)OC[C@H]2O[C@H]1n1ccc(=O)[nH]c1=O [Compound 62A] | > 10 | > 50 |
| C#C[C@]1(C)[C@@H]2O[P@](=O)(OC[C@@H](CC(=O)OC(C)C)OC)OC[C@H]2O[C@H]1n1ccc(=O)[nH]c1=O [Compound 62B] | > 10 | > 50 |
| CO[C@@H](CO[P@@]1(=O)OC[C@H]2O[C@@H](n3ccc(=O)[nH]c3=O)[C@](C)(N)[C@@H]2O1)CC(=O)OC(C)C [Compound 63A] | > 10 | > 50 |
| CO[C@@H](CO[P@]1(=O)OC[C@H]2O[C@@H](n3ccc(=O)[nH]c3=O)[C@](C)(N)[C@@H]2O1)CC(=O)OC(C)C [Compound 63B] | > 10 | > 50 |
| C#C[C@]1(C)[C@@H]2O[P@@](=O)(OC[C@@H](F)CC(=O)OC(C)C)OC[C@H]2O[C@H]1n1ccc(=O)[nH]c1=O [Compound 64A] | 0.25 to 1 | > 50 |
| C#C[C@]1(C)[C@@H]2O[P@](=O)(OC[C@@H](F)CC(=O)OC(C)C)OC[C@H]2O[C@H]1n1ccc(=O)[nH]c1=O [Compound 64B] | 0.25 to 1 | > 50 |
| CC(C)OC(=O)C[C@H](F)CO[P@@]1(=O)OC[C@H]2O[C@@H](n3ccc(=O)[nH]c3=O)[C@](C)(N)[C@@H]2O1 [Compound 65A] | > 10 | > 50 |
| C#C[C@]1(C)[C@@H]2O[P@@](=O)(OC[C@H](F)CC(=O)OC(C)C)OC[C@H]2O[C@H]1n1ccc(=O)[nH]c1=O [Compound 66A] | > 10 | > 50 |
| C#C[C@]1(C)[C@@H]2O[P@](=O)(OC[C@H](F)CC(=O)OC(C)C)OC[C@H]2O[C@H]1n1ccc(=O)[nH]c1=O [Compound 66B] | 0.25 to 1 | > 50 |
| CC(C)OC(=O)C[C@@H](F)CO[P@@]1(=O)OC[C@H]2O[C@@H](n3ccc(=O)[nH]c3=O)[C@](C)(N)[C@@H]2O1 [Compound 67A] | > 10 | > 50 |
| C#C[C@]1(C)[C@@H]2O[P@@](=O)(OCCOCC(=O)OC(C)C)OC[C@H]2O[C@H]1n1ccc(=O)[nH]c1=O [Compound 68A] | > 10 | > 50 |
| C#C[C@]1(C)[C@@H]2O[P@](=O)(OCCOCC(=O)OC(C)C)OC[C@H]2O[C@H]1n1ccc(=O)[nH]c1=O [Compound 68B] | 1 to 10 | > 50 |
| CC(C)OC(=O)COCCO[P@@]1(=O)OC[C@H]2O[C@@H](n3ccc(=O)[nH]c3=O)[C@](C)(N)[C@@H]2O1 [Compound 69A] | > 10 | > 50 |
| CC(C)OC(=O)COCCO[P@]1(=O)OC[C@H]2O[C@@H](n3ccc(=O)[nH]c3=O)[C@](C)(N)[C@@H]2O1 [Compound 69B] | > 10 | > 50 |
